Test systems include A549 NSCLC; RXF 393 renal; SN12C renal; SNB-75 CNS; OVCAR-3 ovarian; HCC-2998 colon; 786-0 renal; ACHN renal; HOP-62 NSCLC; K-562 leukemia; SK-MEL-28 melanoma; OVCAR-8 ovarian; RPMI-8226 leukemia.
What all share (experiment): NCI-60 cell line screen, 48 h

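Cultured in 96-well plates, cells were exposed to test compound for 48 hours across five concentrations. TGI: concentration producing complete growth inhibition.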 Bounds are passed on as bounds.

Take `COP(=O)(OC)/C(=C\c1cn(C(c2ccccc2)(c2ccccc2)c2ccccc2)cn1)NC(C)=O`: the TGI was greater than 100 µM in the assay on A549 NSCLC; 83.6 µM in the assay on RXF 393 renal; greater than 100 µM in the assay with SN12C renal; greater than 100 µM in the assay on SNB-75 CNS; greater than 100 µM with OVCAR-3 ovarian; greater than 100 µM in the assay with HCC-2998 colon. The TGI in the assay on 786-0 renal, with ACHN renal, in the assay on HOP-62 NSCLC, with K-562 leukemia, with SK-MEL-28 melanoma and in the assay with OVCAR-8 ovarian was greater than 100 µM throughout.
In the case of `C=CCn1c(-c2ccc(-c3cs/c(=N\N=O)n3CC=C)cc2)cs/c1=N\N=O`, the TGI was greater than 100 µM in the assay with A549 NSCLC; 53 µM in the assay with RXF 393 renal; greater than 100 µM in the assay on SN12C renal; 88.5 µM in the assay with SNB-75 CNS; greater than 100 µM in the assay with OVCAR-3 ovarian; greater than 100 µM in the assay with HCC-2998 colon. Moreover, the TGI in the assay with 786-0 renal, in the assay on ACHN renal, in the assay with HOP-62 NSCLC, in the assay on K-562 leukemia, in the assay on SK-MEL-28 melanoma and with OVCAR-8 ovarian was greater than 100 µM in each case.
On to `O=C1NC2(CCN(CCCC3(c4ccc(F)cc4)OCCO3)CC2)Oc2ccccc21`, for which the TGI in the assay on A549 NSCLC, with RXF 393 renal, in the assay with SN12C renal, with SNB-75 CNS, with HCC-2998 colon and in the assay with 786-0 renal was greater than 100 µM in each case. The TGI in the assay on ACHN renal, in the assay with HOP-62 NSCLC, in the assay on RPMI-8226 leukemia, in the assay on K-562 leukemia, in the assay with SK-MEL-28 melanoma and in the assay on OVCAR-8 ovarian was greater than 100 µM each time.
Turning to `CCOC(=O)C(=O)C(CCC(=O)c1ccc2ccccc2c1O)C(=O)OCC` (configuration not stated), the TGI in the assay on A549 NSCLC, in the assay on RXF 393 renal, in the assay on SN12C renal, in the assay with SNB-75 CNS, with OVCAR-3 ovarian and with HCC-2998 colon was greater than 100 µM throughout. The TGI in the assay with 786-0 renal, in the assay on ACHN renal, in the assay with RPMI-8226 leukemia, in the assay on K-562 leukemia, in the assay on SK-MEL-28 melanoma and in the assay with OVCAR-8 ovarian was greater than 100 µM in each case.
For `CCc1cc2c(oc3cc(C)ccc32)c(=O)n1C`, the TGI in the assay with A549 NSCLC, in the assay with RXF 393 renal, with SN12C renal, in the assay with SNB-75 CNS, in the assay with OVCAR-3 ovarian and with HCC-2998 colon was greater than 10 µM each time. The TGI with 786-0 renal, with ACHN renal, in the assay with K-562 leukemia and in the assay on OVCAR-8 ovarian was greater than 10 µM in each case.
Turning to `CN(C)CC1CN=C(NC(=O)Nc2ccccc2)O1` (configuration not stated), the TGI in the assay with A549 NSCLC, with RXF 393 renal, in the assay on SN12C renal, with SNB-75 CNS, in the assay with HCC-2998 colon and with 786-0 renal was greater than 100 µM throughout. The TGI with ACHN renal, in the assay with HOP-62 NSCLC, in the assay with RPMI-8226 leukemia, in the assay with K-562 leukemia, with SK-MEL-28 melanoma and with OVCAR-8 ovarian was greater than 100 µM each time.
Turning to `O=C(CSC1=NNC2(C(=O)N1)c1ccccc1-c1ccccc12)NC(=S)Nc1ccccc1`, the TGI in the assay with A549 NSCLC, in the assay with RXF 393 renal, in the assay on SN12C renal, in the assay on SNB-75 CNS, in the assay with HCC-2998 colon and in the assay on 786-0 renal was greater than 10 µM each time. For the same molecule, the TGI in the assay on ACHN renal, with HOP-62 NSCLC, in the assay with RPMI-8226 leukemia, in the assay on K-562 leukemia, in the assay with SK-MEL-28 melanoma and with OVCAR-8 ovarian was greater than 10 µM throughout.
Take `CC(=O)C1=CCC2c3[nH]c4ccccc4c3CCN2C1` (configuration not stated): the TGI is greater than 100 µM in the assay on A549 NSCLC; greater than 100 µM in the assay with RXF 393 renal; greater than 100 µM with SN12C renal; 88.3 µM in the assay with SNB-75 CNS; greater than 100 µM in the assay on OVCAR-3 ovarian; greater than 100 µM in the assay with HCC-2998 colon. Besides, the TGI with 786-0 renal was greater than 100 µM; in the assay on ACHN renal it was greater than 100 µM; in the assay on HOP-62 NSCLC, greater than 100 µM; in the assay with K-562 leukemia it was 91.3 µM; in the assay with SK-MEL-28 melanoma, greater than 100 µM; in the assay on OVCAR-8 ovarian it was greater than 100 µM.
As for `Cc1c(C)c(S(=O)(=O)N(CCCCCON)OCCCN)c(C)c2c1OC(C)(C)CC2`, the TGI in the assay on A549 NSCLC was 26.1 µM; in the assay on RXF 393 renal, 25.1 µM; with SN12C renal, 32.4 µM; in the assay on SNB-75 CNS, 27.3 µM; in the assay with OVCAR-3 ovarian, 28.7 µM; in the assay on 786-0 renal, greater than 100 µM. Further, the TGI in the assay with ACHN renal is 30 µM; in the assay on HOP-62 NSCLC it was 31.8 µM; in the assay with RPMI-8226 leukemia, 32 µM; with K-562 leukemia, greater than 40.3 µM; in the assay with SK-MEL-28 melanoma, 32.2 µM; with OVCAR-8 ovarian, 23.9 µM.
Consider `CC1OC(OC2C(Oc3cc(O)c4c(c3)O[C@H](c3ccc(O)cc3)CC4=O)OC(CO)C(O)C2O)C(O)C(O)C1O` (some centres not stated), for which the TGI in the assay on A549 NSCLC, in the assay on RXF 393 renal, with SN12C renal, in the assay with SNB-75 CNS, with OVCAR-3 ovarian and in the assay on HCC-2998 colon was greater than 100 µM each time. Further, the TGI in the assay with 786-0 renal, in the assay with ACHN renal, in the assay with HOP-62 NSCLC, with RPMI-8226 leukemia, with SK-MEL-28 melanoma and in the assay with OVCAR-8 ovarian was greater than 100 µM throughout.
In the case of `C[C@]12CC[C@H](O)CC1=CC[C@@H]1C2CC[C@]2(C)Nc3c(cnn3-c3ccc(F)cc3)CC12` (some centres not stated), the TGI in the assay with A549 NSCLC is greater than 100 µM; in the assay on RXF 393 renal it was 7.7 µM; in the assay with SN12C renal, greater than 100 µM; with SNB-75 CNS it was 16.5 µM; in the assay on OVCAR-3 ovarian, greater than 100 µM; with HCC-2998 colon it was greater than 100 µM. Moreover, the TGI was 16 µM with 786-0 renal; greater than 100 µM in the assay with ACHN renal; 61.1 µM in the assay on HOP-62 NSCLC; greater than 100 µM in the assay with K-562 leukemia; greater than 100 µM in the assay with SK-MEL-28 melanoma; greater than 100 µM with OVCAR-8 ovarian.
In the case of `c1ccc(CC2(c3cc4ccccc4[nH]3)OCCO2)nc1`, the TGI with A549 NSCLC, in the assay with RXF 393 renal, in the assay with SN12C renal, with SNB-75 CNS, with OVCAR-3 ovarian and with 786-0 renal was greater than 100 µM throughout. Besides, the TGI in the assay with ACHN renal, in the assay with HOP-62 NSCLC, with RPMI-8226 leukemia, with K-562 leukemia, in the assay on SK-MEL-28 melanoma and with OVCAR-8 ovarian was greater than 100 µM each time.

(Values after PubChem BioAssay (NCI).)
